{
  "source": "patent US9585854B2",
  "about": "“N-acetyl-L-cysteine for use in in vitro fertilization” (IASOMAI AB, priority 2012, dated 2017)",
  "key": {"[1]": {"test_system": "normal human epidermal keratinocytes", "assay": "micro array gene expression analysis (Affymetrix GeneChip)", "assay_type": "cell-based", "conditions": "vs untreated", "procedure": "The present experiments were carried out to elucidate if NAC treatment influence integrin and fibronectin gene expression by gene expression analysis using the Affymetrix GeneChip platform.\nA micro array based gene expression analysis of the normal human epidermal keratinocytes was performed 1 and 12 hours after addition of NAC, compared to untreated (i.e. control samples at the same time points). Data obtained from GeneChip analysis were processed using the RNA analysis approach and samples were normalized to their corresponding controls. Filtering was done based on two criteria (p-value <0.1 and >1.5 fold up- or >0.5 down-regulation) for each time point. The labelling and hybridisation was done in duplicate."}, "[2]": {"parameters": "species or system human", "conditions": "in vivo", "excerpt": "GSH is e.g. normally conjugated to reactive metabolites formed by paracetamol and helps detoxify them. When paracetamol is overdosed GSH is however depleted and the paracetamol metabolites start reacting with cellular proteins, eventually leading to cell death. In the treatment of fulminant hepatic failure after paracetamol poisoning NAC acts instead of GSH in the detoxification of paracetamol metabolites.\nThe composition of the present invention, comprising NAC for the treatment of IVF according to one embodiment to be administered intravenously at a dose between approximately 50 and 150 mg/kg/day.\nFor overcoming this in cases of oral administration, an option is to provide NAC in a formulation with gastric protection, suitable for preventing NAC release/solubility in the stomach. Such formulations are well known in the art and may be used with the present invention. For example, tablet coatings that are resistant to gastric fluids and allow release of the drug only in the intestine, after its transit through the stomach, may be used. Commonly used formulations include polymers such as cellulose derivatives, methacrylate amino ester copolymers. […]"}, "Jurkat cells": {"test_system": "Jurkat cells", "assay": "Cell adhesion assay of Jurkat cells on fibronectin", "assay_type": "cell-based, human", "conditions": "NAC 5 mM for 2 h pretreatment, eosin Y absorbance 540 nm, vs control", "procedure": "Cell Adhesion Assay. Seven μg/ml of human fibronectin (Sigma Aldrich Chem Co) were saturated with 2% bovine serum albumin (BSA) for 30 min at 37° C. and washed twice with phosphate buffered saline (PBS). Jurkat cells were then seeded onto the wells for 2 h at 37° C.; then, nonadherent cells were aspirated, and the wells were rinsed with PBS. Adhering cells were fixed overnight with 2% formaldehyde and stained with eosin Y for 30 min. Eosin Y was then extracted by addition of a mixture of 1% of glacial acetic acid and 50% ethanol, and absorbance was measured at 540 nm.\nNAC increases the adhesions of Jurkat cells on fibronectin. The adhesion assay was performed by using control or NAC (5 mM for 2 h)-treated Jurkat cells. […] Cell adhesion was then quantitated by staining the cells attached to junction protein-coated plates with eosin Y and reading the absorbance in a microplate reader.\nCells were solubilized and eosin Y and absorbance was quantitated at 540 nm. No antibody, illustrated by black bars; anti-VLA-4 (10 ng/ml) illustrated by grey bars; and anti-VLA-4 (10 μg/ml) illustrated by white bars. Data are means+/−SE(n=3).*, P less than 0.01 vs. control. From FIG. 1 it can be concluded that NAC treatment increases adhesion (junction protein molecules)."}, "[3]": {"test_system": "cancer cells of epithelial origin", "conditions": "cited from earlier work"}, "[4]": {"conditions": "cited from earlier work"}},
  "note": "Where two headings read alike, the source gives them in different places.",
  "data": [
    {"molecule": "CC(=O)N[C@@H](CS)C(=O)O", "note": "[NAC, N-acetyl-L-cysteine]", "values": [
      {"measurement": "integrin alpha 2 gene expression", "setting": "[1]; 1 hr after NAC treatment", "result": "up-regulated"},
      {"measurement": "fibronectin gene expression", "setting": "[1]; 12 hours after NAC", "result": "upregulated"},
      {"measurement": "survival of 1-cell rabbit embryos", "setting": "1-cell rabbit embryos", "result": "not to affect the survival of 1-cell rabbit embryos"},
      {"measurement": "side effect of high oral doses", "setting": "[2]", "result": "may cause abdominal pain"},
      {"measurement": "augmentation of cell adhesion", "setting": "Jurkat cells", "result": "~35", "unit": "%"},
      {"measurement": "effect on proliferation of cancer cells of epithelial origin", "setting": "[3]; Cell Death and Differentiation 2005", "result": "marked antiproliferative effect"},
      {"measurement": "cell-cell and cell-substratum adhesion complexes", "setting": "[3]; NAC-treated cancer cells", "result": "considerable increase"},
      {"measurement": "side effects", "setting": "[4]; daily total NAC dose, per os", "result": "virtually free of side effects"},
      {"measurement": "undesired side effect", "setting": "[4]; general, doses in paracetamol poisoning about 40 g/day for 70 kg", "result": "virtually absent of undesired side effect"},
      {"measurement": "side effects", "setting": "[4]; intravenous, higher limit 150 mg/kg/day", "result": "virtually no side effects"}
    ]}
  ]
}
